Earlier results in paper PMC9610285 (Pharmaceutics, 2022).

Experiments:
[1] = cited from earlier work
[2] = cited from earlier work; remark: listed apart in the source

For `C#CCN[C@@H]1CCc2ccccc21` [rasagiline, Rasagiline], the water solubility [1] is listed as “poorly water-soluble”, the “capacity to cross the blood-brain barrier” value [2] is listed as “high capacity to cross the blood-brain barrier” and the “elimination half-life (t1/2)” value [2] is listed as 36 to 120 min. The oral bioavailability [2] was 36%, the plasma protein binding [2] was 60–70% and the urine elimination [2] was 62.6%. The “tmax (time to reach Cmax)” value ([2]; oral tablet) was “approximately 0.5 h”.
